Consider eight compounds from patent US4791200A, “2-substituted-4-aryl-substituted thiazoles” (Ortho Pharmaceutical Corporation, priority 1987, dated 1988).

Read-outs that look alike come from different tables or passages of the source.

In test [1] the test system is acid output (gastric secretion). As to the kind of experiment: Gastric Secretion (pylorus ligation, modified Shay). Conditions: i.d. or s.c., 4 hours after ligation; for response vs control in vivo at 40 mg/kg: Rattus norvegicus, at 40 mpK, read-out: % Acid Secreted at mpK; for % Acid Secreted at mpK: at 20 mpK. Type of test: in vivo, male Charles River Sprague Dawley derived rats. How it is done:
The inhibitory activity of the compounds on acid output was tested using pylorus ligation in a modification of the procedure of Shay, H. et al., Gastroenterology 26, 906 (1954). Basically, male Charles River Sprague Dawley derived rats weighing 150-300 grams were deprived of food but not water for 18-24 hours prior to use. Water was withheld during the experiment, however. The rats were weighed, anesthetized with ether and the pylorus ligated according to the method of Shay et al., supra. Treatment or vehicle control was then administered intraduodenally (i.d.) or subcutaneously (s.c.). Rats were housed two/cage and sacrificed with CO2 four hours after ligation. The stomachs were removed, rinsed, and contents emptied into a graduated centrifuge tube. The tubes were centrifuged, the volume of gastric juice recorded, and any samples obviously contaminated by feces, food or blood were eliminated. A 1 ml aliquot of gastric juice was titrated with 0.1N NaOH to a pH of 7.0-7.4. The volume of gastric juice secreted, the acid concentration, and the product of the volume times the concentration, i.e., the total amount of acid secreted, were measured.

Test [2] has as its system parietal cells. The test is described as follows: Isolated Parietal Cell Assay (14C-aminopyrine accumulation, histamine or dibutyryl cAMP stimulated). Type of test: cell-based, rabbit. Conditions: Oryctolagus cuniculus. As for the experimental part: The isolated parietal cell assay was conducted using the procedures of Batzri, S. et al., Biochemica et Biophysica Acta 508, 328 (1978) and Soll, A. H. Am. J. Physiol. 238, G366 (1980). Basically, parietal cells were isolated from the fundic mucosa of rabbit stomachs by a four-stage collagenase digestion process. The supernatant fractions from the last two stages of this process contain the individual parietal cells. This cell suspension was centrifuged and reconstituted in a modified Hank's buffer to contain 1-2×10^6 cells/ml. […] This accumulation was stimulated by histamine and was blocked by H2 antagonists. The cells were incubated with 0.4-0.5×10^6 cpm ^14 C-AP, with various concentrations of histamine as a stimulant, 1×10^-5 M isobutylmethylxanthine, and the test compound added in a 20 μl volume of buffer or DMSO. The flasks were incubated in a shaking water bath at 37° C. for 20 minutes. Two aliquots were then taken from each flask and cell pellets were collected by centrifugation. The pellets were solubilized with Protosol (New England Nuclear) and radioactivity determined by liquid scintillation spectrometry. Data is presented as the IC50 vhist, the concentration of compound required to inhibit ^14 C-AP accumulation in the histamine stimulated parietal cell by 50%.
When dibutyryl cAMP was used to stimulate the cells instead of histamine, a similar inhibition of ^14 C-AP accumulation was measured and the data are presented as the IC50 vcAMP, the concentration required to inhibit ^14 C-AP accumulation in the cAMP stimulated parietal cell by 50%.

In test [3] the target is T1, parietal cell H^+ K^+ ATPase (Oryctolagus cuniculus, UniProt P27112).
T1 construct: determined in fundic mucosa from New Zealand white rabbits which were homogenized; from tissue; host or cells: fundic mucosa of New Zealand white rabbits, homogenized; membrane protein
The test is described as follows: Inhibition of Parietal Cell H^+ K^+ ATPase. The class given is biochemical, New Zealand white rabbits. Conditions: read-out: % Inhibition at Concentration; for inhibition at 100 µM: at 10^-4 M. How it is done: The activity was measured in a 1 ml incubation volume containing 50 mM Tris pH 7.4, 2 mM MgCl2, 2 mM Na2 ATP, with or without 20 mM KCl and vehicle control (dimethylsulfoxide) or test compound added in a 0.02 ml volume. Typically, 20-50 μg membrane protein was added and the tubes were preincubated with test compound for 10 minutes at 37° C. Substrate, Na2 ATP, was then added and the tubes were incubated for another 15 minutes at 37° C. The reaction was stopped by the addition of 1 ml 14% trichloroacetic acid and the samples were centrifuged at 2,000 ×g for 10 minutes. The amount of inorganic phosphate present in an aliquot of supernatant was determined. H^+ K^+ ATPase activity was determined after correcting for the basal (Mg^++ only) enzyme activity present in the membrane preparation.

[4] abbreviates: 20 min, histamine stimulated, 37° C., 20 minutes, read-out: IC50 vhist (inhibition of 14C-AP accumulation in the histamine stimulated parietal cell).
Setting [5] is: dibutyryl cAMP stimulated, read-out: IC50 vcAMP (inhibition of 14C-AP accumulation in the cAMP stimulated parietal cell).

T1 sequence (P27112 2-1035 limits assumed): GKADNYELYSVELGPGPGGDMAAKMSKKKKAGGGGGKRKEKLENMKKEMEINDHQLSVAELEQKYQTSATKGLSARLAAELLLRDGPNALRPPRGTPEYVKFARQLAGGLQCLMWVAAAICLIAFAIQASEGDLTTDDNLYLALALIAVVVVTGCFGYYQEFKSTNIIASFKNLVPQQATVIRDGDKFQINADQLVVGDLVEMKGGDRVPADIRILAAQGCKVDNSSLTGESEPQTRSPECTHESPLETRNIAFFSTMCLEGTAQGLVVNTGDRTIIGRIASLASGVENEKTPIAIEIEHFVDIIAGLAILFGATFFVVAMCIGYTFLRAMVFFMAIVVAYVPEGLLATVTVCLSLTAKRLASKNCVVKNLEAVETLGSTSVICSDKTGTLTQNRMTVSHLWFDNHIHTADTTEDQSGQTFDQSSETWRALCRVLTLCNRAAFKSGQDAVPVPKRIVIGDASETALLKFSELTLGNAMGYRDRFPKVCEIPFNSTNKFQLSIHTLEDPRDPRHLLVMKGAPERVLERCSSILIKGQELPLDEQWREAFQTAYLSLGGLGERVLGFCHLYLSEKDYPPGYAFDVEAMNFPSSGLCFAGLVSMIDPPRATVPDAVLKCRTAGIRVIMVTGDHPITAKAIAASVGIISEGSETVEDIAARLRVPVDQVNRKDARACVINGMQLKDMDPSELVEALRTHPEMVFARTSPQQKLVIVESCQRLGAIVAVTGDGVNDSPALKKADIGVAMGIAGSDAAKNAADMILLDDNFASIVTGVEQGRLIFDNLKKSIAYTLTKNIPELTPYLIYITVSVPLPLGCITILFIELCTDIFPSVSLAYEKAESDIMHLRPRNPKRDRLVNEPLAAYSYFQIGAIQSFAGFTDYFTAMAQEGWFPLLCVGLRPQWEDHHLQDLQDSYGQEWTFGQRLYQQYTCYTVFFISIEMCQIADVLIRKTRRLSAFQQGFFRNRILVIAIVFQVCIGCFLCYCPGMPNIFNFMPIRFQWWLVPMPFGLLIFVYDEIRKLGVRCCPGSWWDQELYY
T1 sequence (P18597 whole entry partner): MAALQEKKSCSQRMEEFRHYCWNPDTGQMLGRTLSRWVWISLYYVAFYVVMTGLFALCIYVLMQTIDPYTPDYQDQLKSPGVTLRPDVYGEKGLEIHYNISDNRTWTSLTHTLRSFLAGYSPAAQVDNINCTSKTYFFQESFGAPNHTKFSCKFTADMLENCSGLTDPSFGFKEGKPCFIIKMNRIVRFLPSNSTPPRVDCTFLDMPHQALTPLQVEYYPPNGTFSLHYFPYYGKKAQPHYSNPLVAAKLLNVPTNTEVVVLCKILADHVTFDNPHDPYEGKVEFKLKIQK

In the case of `CCCCN(CCCC)CCCOc1ccc(-c2csc(-c3ccc(C(F)(F)F)cc3)n2)cc1` [Example 20, 4-(4-Dibutylaminopropoxyphenyl)-2-(4-trifluoromethylphenyl)thiazole], in test [1], the response vs control in vivo at 40 mg/kg was found to be 40%. The IC50 was determined as 2900 nM in test [2] (setting [4]) and 2000 nM in test [2] (setting [5]). For the same compound, the inhibition at 10.6 µM in test [3] (at 10.6 μM) is 50%.

Consider `CCCCN(CCCC)CCCOc1ccc(-c2csc(-c3cccnc3)n2)cc1` [Example 21, 4-(4-Dibutylaminopropoxyphenyl)-2-(3-pyridinyl)thiazole], for which the “% Acid Secreted at mpK” value in test [1] was 19%. Also, the IC50 in test [2] (setting [4]) was 1650 nM; in test [2] (setting [5]) it was 880 nM. The inhibition at 20 µM in test [3] (at 20 μM) came out at 50%.

For the compound `CCCCN(CCCC)CCCOc1c(Cl)cc(-c2csc(-c3ccccc3)n2)cc1Cl` [Example 22, 4-[3,5-Dichloro-4-(dibutylaminopropoxy)phenyl]-2-phenylthiazole], the “% Acid Secreted at mpK” value in test [1] was found to be 41%. Moreover, the IC50 in test [2] (setting [4]) amounted to 580 nM; in test [2] (setting [5]), 240 nM. Besides, the inhibition at 100 µM in test [3] came out at 29%.

On to `Clc1cc(-c2csc(-c3ccccc3)n2)cc(Cl)c1OCCCn1ccnc1` [Example 23, 4-[3,5-Dichloro-4-(1H-imidazol-1-yl)propoxyphenyl]-2-phenylthiazole], for which, in test [1], the “% Acid Secreted at mpK” value was determined as 33%. The IC50 in test [2] (setting [4]) is 400 nM; in test [2] (setting [5]), 460 nM. The inhibition at 2.4 µM in test [3] (at 2.4 μM) turned out to be 50%.

As for `c1ccc(-c2nc(-c3ccc(OCCCn4cncn4)cc3)cs2)cc1` [Example 24, 4-[4-(1,2,4-Triazol-1-yl)propoxyphenyl]-2-phenylthiazole], in test [1], the response vs control in vivo at 40 mg/kg was determined as 83%. For the same compound, the IC50 in test [2] (setting [4]) amounted to 10000 nM. Further, in test [3], the inhibition at 100 µM was 36%.

Consider `CCCCN(CCCC)CCCOc1ccc(-c2nc(-c3ccccc3)sc2CC)cc1` [Example 25, 5-Ethyl-4-(4-dibutylaminopropoxyphenyl)-2-phenylthiazole], for which, in test [1], the “% Acid Secreted at mpK” value is 8%. The IC50 stood at 340 nM in test [2] (setting [4]) and 240 nM in test [2] (setting [5]). Besides, the inhibition at 100 µM in test [3] was found to be 5%.

As for `CCCCN(CCCC)CCCOc1ccc(-c2csc(-c3ccccc3)n2)cc1C` [Example 26], the “% Acid Secreted at mpK” value in test [1] was 64%. Moreover, the results for the IC50 in test [2] (setting [4]) and in test [2] (setting [5]) were 300 nM and 290 nM, respectively. In addition, the inhibition at 100 µM in test [3] amounted to 23%.

In the case of `c1ccc(-c2nc(-c3cccc(OCCCn4ccnc4)c3)cs2)cc1` [Example 27], the “% Acid Secreted at mpK” value in test [1] is 13%. The IC50 in test [2] (setting [4]) was 320 nM; in test [2] (setting [5]), 290 nM. Besides, the inhibition at 10.5 µM in test [3] (at 10.5 μM) came out at 50%.
